# Assay results from publication PMC6792352, “Limited Chemical Structural Diversity Found to Modulate Thyroid Hormone Receptor in the Tox21 Chemical Library” (Environmental Health Perspectives, 2019).
# Counter-ions that a name gives are not always drawn.
# Experiment: in vitro
# Details: rat, gh3-tre-luc cells
SMILES,CC50 at 24 h (AC50 (uM) modified / 1000),other results
CCN(CC)CCOc1ccc2c(c1)C(=O)c1cc(OCCN(CC)CC)ccc1-2 [Tilorone],> 50 µM,
O=P(O)(O)C(Sc1ccc(Cl)cc1)P(=O)(O)O [Tiludronate disodium],> 50 µM,
COC1CC(=C(c2cccs2)c2cccs2)C[N+](C)(C)C1 (centres unmarked) [Timepidium bromide],,"CC50 at 24 h (AC50 (uM) modified / 1000, Tox21_110001=Tox21_112659, viability, 1 nM T3 present, 24 h): > 50 µM"
O=C(CCCN1CCC(n2c(=S)[nH]c3ccccc32)CC1)c1ccc(F)cc1 [Timiperone],23.9 µM,
CCS(=O)(=O)CCn1c([N+](=O)[O-])cnc1C [Tinidazole],> 20 µM,
CCOC(=O)c1c(N)sc2c1CCN(Cc1ccccc1)C2 [Tinoridine],> 50 µM,
Clc1ccc(C(Cn2ccnc2)OCc2ccsc2Cl)c(Cl)c1 (centres unmarked) [Tioconazole],14.7 µM,
CC(S)C(=O)NCC(=O)O (centres unmarked) [Tiopronin],> 50 µM,
CNC(=NCCSCc1csc(N=C(N)N)n1)NC#N [Tiotidine],> 50 µM,
C[N+]1(C)[C@@H]2C[C@@H](OC(=O)C(O)(c3cccs3)c3cccs3)C[C@H]1[C@@H]1O[C@@H]12 [Tiotropium bromide],> 50 µM,
CCCOc1ccc2nc(NC(=O)OC)sc2c1 [Tioxidazole],2.38 µM,
CN1CCCC(=C(c2cccs2)c2cccs2)C1 [Tipepidine],,"CC50 at 24 h (AC50 (uM) modified / 1000, Tox21_110001=Tox21_112428, viability, 1 nM T3 present, 24 h): > 50 µM"
CCC[C@@]1(CCc2ccccc2)CC(O)=C([C@H](CC)c2cccc(NS(=O)(=O)c3ccc(C(F)(F)F)cn3)c2)C(=O)O1 [Tipranavir],> 50 µM,
CCOC(=O)Nc1ccc2c(c1)N(C(=O)CN(C)C)c1ccccc1CC2 [Tiracizine],41.3 µM,
O=C(O)Cc1cc(I)c(Oc2ccc(O)c(I)c2)c(I)c1 [Tiratricol],> 20 µM,
CCCCS(=O)(=O)N[C@@H](Cc1ccc(OCCCCC2CCNCC2)cc1)C(=O)O [Tirofiban hydrochloride monohydrate],> 50 µM,
O=S(=O)(O)c1cc(O)c(O)c(S(=O)(=O)O)c1 [Tiron],> 90 µM,
Clc1ccc2nsnc2c1NC1=NCCN1 [Tizanidine],> 50 µM,
COc1ccc(CNCC(O)COc2ccc3[nH]c(=O)ccc3c2)cc1OC (centres unmarked) [Toborinone],> 50 µM,
NC[C@H]1O[C@H](O[C@H]2[C@H](O)[C@@H](O[C@H]3O[C@H](CO)[C@@H](O)[C@H](N)[C@H]3O)[C@H](N)C[C@@H]2N)[C@H](N)C[C@@H]1O [Tobramycin],> 20 µM,
Cc1cccc(C)c1NC(=O)C(C)N (centres unmarked) [Tocainide hydrochloride],> 20 µM,

SMILES,CC50 at 24 h (AC50 (uM) modified / 1000),other results
CCOC(=O)NNc1nncc2ccccc12 [Todralazine hydrochloride],> 50 µM,
CCC1C(C)=NN=C(c2ccc(OC)c(OC)c2)c2cc(OC)c(OC)cc21 (centres unmarked) [Tofisopam],> 50 µM,
Cc1ccccc1OCC(O)CNCCOc1ccc(C(N)=O)cc1 (centres unmarked) [Tolamolol],13.4 µM,
Cc1ccc(S(=O)(=O)NC(=O)NN2CCCCCC2)cc1 [Tolazamide],> 90 µM,
c1ccc(CC2=NCCN2)cc1 [Tolazoline hydrochloride],> 20 µM,
CCCCNC(=O)NS(=O)(=O)c1ccc(C)cc1 [Tolbutamide],> 90 µM,
Cc1ccc(C(=O)c2cc(O)c(O)c([N+](=O)[O-])c2)cc1 [Tolcapone],72.4 µM,
COP(=S)(OC)Oc1c(Cl)cc(C)cc1Cl [Tolclofos-methyl],,"CC50 at 24 h (AC50 (uM) modified / 1000, Tox21_110001=Tox21_301347, viability, 1 nM T3 present, 24 h): > 90 µM"
Cc1c(Cl)cccc1Nc1ccccc1C(=O)O [Tolfenamic acid],> 50 µM,
Cc1cccc(N(C)C(=S)Oc2ccc3c(c2)CCC3)c1 [Tolindate],> 50 µM,
Cc1ccc(C(=O)c2ccc(CC(=O)O)n2C)cc1 [Tolmetin sodium dihydrate],> 20 µM,
Cc1ccc(S(=O)(=O)NC(=O)NC2CCCC2)cc1 [Tolpentamide],> 50 µM,
Cc1ccc(C(=O)C(C)CN2CCCCC2)cc1 (centres unmarked) [Tolperisone hydrochloride],> 50 µM,
Cc1ccc(O)c([C@H](CCN(C(C)C)C(C)C)c2ccccc2)c1 [Tolterodine],18.9 µM,
Cc1cc(-n2c(=O)[nH]c(=O)n(C)c2=O)ccc1Oc1ccc(S(=O)(=O)C(F)(F)F)cc1 [Toltrazuril sulfone],> 50 µM,
Cc1ccc(N=C=O)cc1N=C=O [Toluene diisocyanate],,"CC50 at 24 h (AC50 (uM) modified / 1000, Tox21_110001=Tox21_200144, viability, 1 nM T3 present, 24 h): > 90 µM"
"Cc1c(N=C=O)cccc1N=C=O [Toluene-2,6-diisocyanate]",> 90 µM,
Cc1ccccc1 [Toluene],> 90 µM,
Cc1ccccc1C(=O)Nc1ccc(C(=O)N2CCCC(O)c3cc(Cl)ccc32)c(C)c1 (centres unmarked) [Tolvaptan],> 50 µM,
Cc1ccc(N(SC(F)(Cl)Cl)S(=O)(=O)N(C)C)cc1 [Tolylfluanid],3.13 µM,
C[C@H]1CC[C@]2(NC1)O[C@H]1C[C@H]3[C@@H]4CC[C@H]5C[C@@H](O)CC[C@]5(C)[C@H]4CC[C@]3(C)[C@H]1[C@@H]2C [Tomatidine hydrochloride],47 µM,

SMILES,CC50 at 24 h (AC50 (uM) modified / 1000),other results
CCCc1c(OCCCCc2nnn[nH]2)ccc(C(C)=O)c1O [Tomelukast],> 50 µM,
CC1(C)O[C@@H]2[C@@H](CO[C@@]3(COS(N)(=O)=O)OC(C)(C)O[C@@H]23)O1 [Topiramate],> 90 µM,
CC[C@@]1(O)C(=O)OCc2c1cc1n(c2=O)Cc2cc3c(CN(C)C)c(O)ccc3nc2-1 [Topotecan hydrochloride],> 50 µM,
Cc1c(C(=O)c2c[nH]n(C)c2=O)ccc(S(C)(=O)=O)c1C1=NOCC1 [Topramezone],> 40 µM,
Cc1cccc(Nc2ccncc2S(=O)(=O)NC(=O)NC(C)C)c1 [Torsemide],> 20 µM,
Cc1ccc(S(=O)(=O)NC(=O)N[C@@H](C)Cc2ccccc2)cc1 [Tosifen],> 50 µM,
NC1CCN(c2nc3c(cc2F)c(=O)c(C(=O)O)cn3-c2ccc(F)cc2F)C1 (centres unmarked) [Tosufloxacin toluenesulfonic acid],> 50 µM,
CCCCNc1c(C(=O)OCC)c(C)nc2c1cnn2CC [Tracazolate hydrochloride],> 50 µM,
CCO/N=C(\CC)C1=C(O)CC(c2c(C)cc(C)cc2C)CC1=O (centres unmarked) [Tralkoxydim],> 90 µM,
COc1cccc([C@@]2(O)CCCC[C@@H]2CN(C)C)c1 [Tramadol hydrochloride],> 50 µM,
c1cc2c(c(NC3=NCCN3)c1)CCCC2 [Tramazoline tosylate],> 50 µM,
CCOC(=O)[C@H](CCc1ccccc1)N[C@@H](C)C(=O)N1[C@H](C(=O)O)C[C@H]2CCCC[C@@H]21 [Trandolapril],> 50 µM,
NC[C@H]1CC[C@H](C(=O)O)CC1 [Tranexamic acid],> 20 µM,
COc1ccc(/C=C/C(=O)Nc2ccccc2C(=O)O)cc1OC [Tranilast],> 50 µM,
CC1(C)[C@H](C=C(Cl)Cl)[C@H]1C(=O)OCc1c(F)c(F)cc(F)c1F [Transfluthrin],> 50 µM,
N[C@@H]1C[C@H]1c1ccccc1 [Tranylcypromine hydrochloride],> 50 µM,
OC[C@H]1O[C@H](O[C@H]2O[C@H](CO)[C@@H](O)[C@H](O)[C@H]2O)[C@H](O)[C@@H](O)[C@@H]1O [Trehalose dihydrate],> 90 µM,
NC(=O)Cn1c(=O)cc(CCN2CCN(c3nccc4sccc34)CC2)c2ccc(F)cc21 [Trelanserin],52.8 µM,
CC(=O)O[C@H]1CC[C@H]2[C@@H]3CCC4=CC(=O)CCC4=C3C=C[C@]12C [Trenbolone acetate],> 50 µM,
CS(=O)(=O)OC[C@H](O)[C@@H](O)COS(C)(=O)=O [Treosulfan],> 50 µM,
